[ ]: non-standard residue; d: D form. The star is where a group is joined. Benzoyl(4-F) = O=C(c1ccc(F)cc1)*; Cit = NC(=O)NCCC[C@H](N)C(=O)O

Assay [1] deals with SK-N-BE(2) orthotopic xenograft tumors. As to the kind of experiment: In-vivo orthotopic NB model (tumor growth, weight, survival). The arrangement: species or system NSG mice. On the procedure:
(§1) Human SK-N-BE(2) cells were orthotopically injected into the left adrenal gland of 6-8 weeks old NSG mice. A 27-gauge needle was introduced through the left adrenal fat pad and 5×10∧5 cells/20 μl PBS were inoculated to the adrenal gland. NSG mice were maintained under defined flora conditions at the Hebrew University Pathogen-Free Animal Facility. Tumor growth and volume were monitored bi-weekly by using T2-weighted MRI until tumors reached the ethical limit volume and mice were randomized to drug-treated or control mice. Mice in the treated group were subjected to 2 treatment protocols. In the first treatment protocol BL-8040 (400 μg) was injected daily, starting three days following inoculation, and was continued for 35 days. In the second treatment protocol mice were monitored for 21 days. As of day 7, mice were treated with a daily injection of BL-8040 (400 μg) for 14 consecutive days.
Magnetic resonance imaging (MRI) scans were performed on a horizontal 4.7T Biospec spectrometer (Bruker Medical) with a 3.5-cm birdcage coil. Mice were anesthetized with Isoflurane (Nicholas Piramal, India; 2% in a mixture of 30:70 O2:N2O). Tumor volume was assessed bi-weekly using T2-weighted (T2W) fast spin echo images (repetition time=2,000 ms; echo time=37 ms; in plane resolution=117 μm; slice thickness-1 mm). Tumor volume was manually assessed using Analyze-7.0 (BIR). For each subject, an exponential growth curve was fitted to the tumor volume data points (Matlab software).
Data are presented as means±SD or ±SE. Statistical comparison of means was performed by a two-tailed unpaired Student's t test. Differences with a P<0.05 were determined as statistically significant. Statistical analysis of NB tumor mice survival following early treatment was performed using the Mantel-cox test.

For assay [2], the system named is Shy-SY5Y cells. As to the kind of experiment: Cell survival assay (PI staining, FACS). The format is cell-based, human. The settings on record: BL-8040 0-20 μM or AMD3100 10 and 20 μM, 24 hours. As to the method: (§2) A total of 1×10^5 cells/mL were cultured in 24-well plates with […] RPMI 1640 medium supplemented with 10% FCS. 24 hours later, the medium was changed to RPMI 1640 supplemented with either 1% FCS, with BL-8040 or AMD3100 or ABT199. Then 24 hours later, the cells were harvested, washed, and stained with PI (Sigma). The number of live cells was counted and analyzed using FACS analysis.

The subject of assay [3] is SK-N-BE(2) cells. As to the kind of experiment: Cell survival assay (PI staining, FACS). The following applies: BL-8040 0-20 μM or AMD3100 10 and 20 μM, 24 hours. The format is cell-based, human. On the procedure:
as §2

In assay [4] the test system is miR-15a, DLEU2. As to the kind of experiment: Gene expression array of xenograft tumors. The format is in vivo, NSG mice. The following applies: treated vs un-treated tumors.
Text: RNA was isolated from tumors and subjected to gene expression profiling using GeneChip human Gene 1.0 ST Array (Affymetrix). The gene expression values were extracted using the Partek Genomics Suite 6.6 software and, after thresholding and filtering procedures, were submitted to fold change and cluster analyses (Gene Expression Omnibus [GEO] GSE94426).
as §1

Assay [5] concerns BCL-2, cycD1, pERK in SK-N-BE(2) cells. As to the kind of experiment: Western blot analysis of treated cells. The format is cell-based, human. The settings on record: 20 μM, 24 hours. As to the method: SK-N-BE(2) cells were seeded into a 12-well plate at 2×10^5/1 ml of medium per well. The cells were incubated for 48 hours and supernatants were collected. For whole cells: tumor samples and cells were lysed by the addition of lysis buffer containing 50 mM Tris-HCl PH 7.6, 150 mM NaCl, 5 mM EDTA pH 8, 0.5% NP40 and protease inhibitor cocktail (Roche Diagnostics). Lysate was incubated with buffer for 15-20 minutes and then centrifuges at 14,000 rpm, 15 min, at 4° C. Protein amounts were determined by Bradford assay (Bio-Rad).
Protein extracts were equally loaded onto 10% SDS-polyacrylamide gel, electrophorized and transferred onto a polyvinylidenedifluoride (PVDF) membrane (Bio-Rad Laboratories). Then, membranes were blocked and incubated with primary specific antibody O.N. at 4° C. For BCL-2 mouse monoclonal (Abcam). For cycD1 rabbit monoclonal (Thermo). For pERK1/2 rabbit monoclonal (Cell signaling). For β-Actin mouse monoclonal (MP biomedicals). After the washing procedure (3 times, 10 min in washing solution), the membrane was incubated with a secondary immunopure HRP-conjugated antibody, anti-mouse or anti rabbit (Envision; Dako) (1/10,000), washed (5 times, 6 min) and detected with the EZ-ECL kit (Biological Industries). Photon emission was identified by ChemiDoc MP imaging system (Bio-Rad). Intensities of protein bands were quantified by computerized densitometry using Image lab software (Bio-Rad).
On the technique in general: In western blotting, separated proteins are transferred to a membrane and probed.

In the case of “4F-benzoyl-Arg-Arg-Nal-Cys-Tyr-Cit-Lys-DLys-Pro-Tyr-Arg-Cit-Cys-Arg-NH2 ({Benzoyl(4-F)}-RR[Nal]CY[Cit]K[dK]PYR[Cit]CR-NH2; not fully specified; printed as 4F-benzoyl-Arg-Arg-Nal-Cys-Tyr-Cit-Lys-DLys-Pro-Tyr-Arg-Cit-Cys-Arg-NH2; cysteine pairing not given here) [BL-8040]”, the “reduction in tumor weight” value in assay [1] (400 μg s.c. daily for 14 days from day 7, harvested day 21) turned out to be 3 fold. The “survival of animals, average” value in assay [1] (400 μg s.c. daily for 35 days from day 3, controls 35 days) is 61 days. In addition, the “tumor growth (tumor volume, MRI)” value in assay [1] (400 μg s.c. daily for 35 days from day 3, exponential growth after discontinuation) is listed as “tumor growth attenuation”. Further, the “cell viability (viable cells counted)” value in assay [2] is listed as “decreased viability”. The “cell viability (viable cells counted)” value in assay [3] was “decreased viability”. In addition, in assay [4], the “expression of miR-15a and its parent gene DLEU2 (gene chip array)” value was “increased expression”. In assay [5], the “BCL-2 protein (western blot)” value is “reduction”, the “ERK phosphorylation (western blot)” value is recorded as “decreased ERK phosphorylation” and the “cycD1 protein (western blot)” value is given as “reduction”.
